This is an account of results in paper PMC3651166, “Differential Cytotoxic Activity of a Novel Palladium-Based Compound on Prostate Cell Lines, Primary Prostate Epithelial Cells and Prostate Stem Cells” (PLoS ONE, 2013).

The test system of assay [1] is PNT2-C2, BPH-1, P4E6, PC-3 and LNCaP. Kind of assay: Flow cytometry cell cycle analysis, cell lines. The conditions noted are these: PNT2-C2, PC3 and LNCaP cell lines, 48 h post-treatment. The class given is cell-based, human. On the procedure:
(§1) Following drug treatment, floating cells in the media were pooled with adherent cells, which were collected by trypsinisation. Following centrifugation cells were resuspended in 0.5 ml PBS. Cells were fixed in 2 ml ice cold 70% ethanol, which was added in a dropwise fashion while vortexing. Cells were incubated on ice for 30 min then washed in 5 ml PBS and resuspended in 0.4 ml PBS. Following storage at 4°C overnight, 50 µl of RNAse (1 mg/ml) and 50 µl of propidium iodide (1 mg/ml) were added to the cells. Following incubation at 37°C for 30 min the cells were analysed for 2N and 4N DNA content on a flow cytometer (Cyan ADP Analyser, Beckman Coulter).

Assay [2] has as its system LC3-II. The assay is described as follows: Western blotting for autophagy, cell lines. It is filed as cell-based, human. The conditions noted are these: BPH-1, PNT2-C2 and P4E6 cells. On the procedure:
(§2) Following drug treatment, cell lysates were harvested using Cytobuster Protein Extraction Reagent (71009, EMD Millipore, Darmstadt, Germany) with protease inhibitors (cOmplete, EDTA-free Protease Inhibitor Cocktail Tablets, Roche Applied Science, UK). 20 µg of protein extract were loaded on 12% SDS-PAGE gels and wet-transferred to a PVDF membrane. Antibodies used include: monoclonal anti-β-actin 1∶5000 (A5316, Sigma-Aldrich), anti-LC3B 1∶3000 (Ab51520, abcam), cleaved caspase-3 (Asp175) 1∶1000 (9661S, Cell Signaling Technology) and secondary antibodies were Rabbit anti-mouse-HRP 1∶10000 (P0260, Dako) and anti-rabbit IgG HRP-linked 1∶5000 (Cell Signaling Technology Inc. 7074S). Kaleidoscope protein marker was run on each gel (161-0324, Bio-Rad).

For another assay, the system named is cleaved caspase-3. The assay is described as follows: Western blotting for apoptosis, cell lines. The class given is cell-based, human. The conditions noted are these: BPH-1, PNT2-C2 and P4E6 cells. On the procedure:
as §2
Background: In western blotting, separated proteins are transferred to a membrane and probed.

The subject of assay [3] is primary prostate epithelial cells. The assay is described as follows: Flow cytometry cell cycle analysis, primary cells. The class given is cell-based, human. The conditions noted are these: primary prostate epithelial cells, 48 h post-treatment. The procedure: as §1
Background: A flow cytometer gives signals particle by particle.

Assay [4] relates to LC3-II. The assay is described as follows: Western blotting and immunofluorescence for autophagy, primary cells. It is filed as cell-based, human. The note with it: all primary cells. On the procedure:
γH2AX staining: Cells were seeded onto 8-well collagen I-coated chamber slides. […] After blocking of non-specific binding with 2% BSA in PBS with 1% goat serum for 1 hour at RT, primary antibody (anti-phospho-histone H2A.X (Ser139), clone JBW301, Millipore, Cat no. 05–636) at 1∶1000 dilution was added in 3% BSA in PBS at 4°C overnight followed by three washes in 0.5% BSA in PBS with 0.175% Tween 20. Following incubation with secondary antibody (Goat anti-mouse Alexa Fluor 568, Invitrogen, Cat no. A-11004) at 1∶1000 dilution for 45 min in 3% BSA in PBS and three more washes in the same washing buffer, the slides were mounted using Vectashield with DAPI (Vector Laboratories, Cat no. H-1200). LC3-B staining: Cells were treated as above then fixed with 4% paraformaldehyde, followed by an incubation in 0.3% Triton X-100. After blocking with 10% normal goat serum, cells were incubated in anti-LC3B 1∶200 (Ab51520, abcam) diluted in 0.1% Triton X-100 in PBS. Secondary antibody was Alexa Fluor 568 goat anti-rabbit IgG 1∶1000 (Invitrogen A11011).

The test system of assay [5] is stem cells (SCs), transit-amplifying cells (TAs) and committed basal cells (CBs). Kind of assay: ATP viability assay on fractionated primary cells. It is filed as cell-based. The note with it: 25 µM, ATP assay, not statistically significant. The procedure: Epithelial cells from human tumour or BPH materials were cultured for several weeks and the cells treated at very low passages. The cultured basal cell population were trypsinized, resuspended in SCM and then plated on BSA-blocked collagen I-coated plates. […] The cells that attached to substratum were trypsinised, resuspended in MACs buffer and incubated with CD133-microbeads (Cat no. 130-050-801, Miltenyi Biotec Inc., Auburn, CA, USA). MACs MS columns (Cat no. 130-042-201, Miltenyi Biotec Inc., Auburn, CA, USA) were used to select the CD133^+ and CD133^− cells. Finally, the three cell populations were obtained: stem cells (SCs) - α2β1integrin^hi/CD133^+, transit-amplifying cells (TAs) - α2β1integrin^hi/CD133^− and committed basal cells (CBs) - α2β1integrin^lo.
This assay was employed for the bioluminescent determination of the adenosine 5′-triphosphate (ATP) released from fractionated living cells (cancer stem cells, transit amplifying cells and committed basal cells). As ATP is rapidly degraded in dead cells, high intracellular levels provide a selective assay for living cells. The ATP-bioluminescent somatic cell assay kit (FLASC, Sigma-Aldrich, Saint Louis, MO, USA) was used with protocol modifications. Briefly, 50–500 cells per well were seeded in a collagen-coated 96 well plate in triplicate. After treating cells for 72 h, 150 µL of medium was removed from each well. 50 µL of cell extraction reagent was added into each original well. Following 20 min incubation at RT, 50 µL of cell extract was transferred to a white 96-well plate. Finally, 50 µL of ATP assay mix solution was added into the wells and luminescence was read using a plate reader (PolarStar Optima, BMG Labtech, UK). Percent viability was calculated using the formula (% Viability = [(Sample RLU/Control RLU)]x100 where RLU refers to relative light units.

For the next assay, the system named is breast cancer cells. On the set-up: method as in PMID 21885165. The note with it: in vitro and in vivo; cited from earlier work.

For `N.N.[Cl][Pt][Cl]` [Cisplatin, reference compound], the cell cycle effect entry in assay [1] and in assay [3] was “S phase arrest” in each case. In addition, in the assay on LC3-II [2], the “LC3-II expression (autophagy)” value was “did not significantly change levels of LC3-I and LC3-II”. Moreover, in the assay with cleaved caspase-3, the “cleaved caspase-3 (apoptosis)” value is on record as “clear induction of cleaved caspase-3”. Moreover, the “LC3-II (autophagy)” value in the assay on LC3-II [4] is “no significant change in LC3-I or LC3-II levels”.
As to `COc1cc([C@@H]2c3cc4c(cc3[C@@H](O[C@@H]3O[C@@H]5CO[C@@H](C)O[C@H]5[C@H](O)[C@H]3O)[C@H]3COC(=O)[C@H]23)OCO4)cc(OC)c1O` [Etoposide, reference compound], the cell cycle effect entry in assay [1] and in assay [3] was “S phase arrest” throughout. The “LC3-II expression (autophagy)” value with LC3-II [2] is “did not significantly change levels of LC3-I and LC3-II”. Besides, the “cleaved caspase-3 (apoptosis)” value with cleaved caspase-3 is reported as “clear induction of cleaved caspase-3”. In assay [5], the “viability of SCs versus TA and CB cells after treatment” value was “SCs appeared to have increased viability compared to TA and CB cells”.
`O.O.O.O.O=C1[N-]S(=O)(=O)c2ccccc21.O=C1c2ccccc2S(=O)(=O)[N]1[Pd+].c1ccc(-c2cccc(-c3ccccn3)n2)nc1` [[Pd(sac)(terpy)](sac)·4 H2O]: in the assay with breast cancer cells, the anti-growth activity entry is “powerful anti-growth activity”.
